Measurements from EPA's ToxRefDB 2.

Experiments:
mouse [1] = settings: Subchronic oral toxicity in rodents, Gavage/Intubation, dose end: 91 day, group: systemic, systemic / in life observation / body weight / body weight gain + systemic / organ weight / heart / absolute + systemic / organ weight / …
dog [2] = settings: Chronic toxicity, beagle, Oral, Gavage/Intubation, dose end: 363 day, group: systemic
rabbit = settings: Sub-acute repeat dose toxicity; Oral; Gavage/Intubation; dose end: 5 day; group: systemic; systemic / in life observation / body weight / body weight + systemic / in life observation / clinical signs / [other] + systemic / in life …
rat [3] = settings: Prenatal developmental toxicity study, sprague dawley, Oral, Gavage/Intubation, dose end: 18 GD
rat [4] = settings: Sub-acute repeat dose toxicity, sprague dawley, Oral, Gavage/Intubation, dose end: 28 day, group: systemic
mouse [5] = settings: Sub-acute repeat dose toxicity; Oral; Gavage/Intubation; dose end: 29 day; group: systemic; systemic / clinical chemistry / glucose / glucose + systemic / clinical chemistry / urea nitrogen / urea + systemic / hematology / leukocyte…
primate = settings: Sub-acute repeat dose toxicity; Oral; Gavage/Intubation; dose end: 6 day; group: systemic; systemic / in life observation / clinical signs / arrhythmia + systemic / in life observation / clinical signs / emesis + systemic / in life…
dog [6] = settings: Sub-acute repeat dose toxicity; beagle; Oral; Gavage/Intubation; dose end: 30 day; group: systemic; systemic / in life observation / body weight / body weight gain + systemic / organ weight / liver / absolute + systemic / organ weight / …
rat [7] = settings: Chronic toxicity; sprague dawley; Oral; Gavage/Intubation; dose end: 181 day; group: systemic; systemic / in life observation / body weight / body weight gain + systemic / hematology / reticulocyte / reticulocyte + systemic / pathology…
rat [8] = settings: Sub-acute repeat dose toxicity; sprague dawley; Oral; Feed; dose end: 15 day; group: systemic; systemic / in life observation / body weight / body weight + systemic / in life observation / food consumption / food consumption
[9] = systemic / in life observation / body weight / body weight gain + systemic / organ weight / liver / absolute + systemic / pathology …
[10] = systemic / organ weight / kidney / absolute + systemic / clinical chemistry / alkaline phosphatase (alp/alk) / alkaline phosphatase (alp/alk…
[11] = group: developmental, developmental / developmental malformation / bone / full supernumerary
[12] = group: maternal, systemic / in life observation / body weight / body weight + systemic / in life observation / food consumption / food consumption
[13] = systemic / in life observation / body weight / body weight gain + systemic / in life observation / food consumption / food consumption
[14] = systemic / in life observation / body weight / body weight gain + systemic / in life observation / food consumption / food consumption + …

CN1N=C2CCN(C(=O)[C@@H](COCc3ccccc3)NC(=O)C(C)(C)N)C[C@@]2(Cc2ccccc2)C1=O [Capromorelin]
LEL (mouse [1]): 30 mg/kg/day
LOAEL (mouse [1]): > 300 mg/kg/day
NEL (mouse [1]): < 30 mg/kg/day
NOAEL (mouse [1]): ≥ 300 mg/kg/day
LEL (dog [2]; [9]): 7 mg/kg/day
NEL (dog [2]; [9]): < 7 mg/kg/day
LOAEL (dog [2]; [10]): > 40 mg/kg/day
NOAEL (dog [2]; [10]): ≥ 40 mg/kg/day
LOAEL (rabbit): > 150 mg/kg/day
NEL (rabbit): 50 mg/kg/day
NOAEL (rabbit): ≥ 150 mg/kg/day
LOAEL (rat [3]; [11]): > 75 mg/kg/day
NEL (rat [3]; [11]): < 1 mg/kg/day
NOAEL (rat [3]; [11]): ≥ 75 mg/kg/day
LOAEL (rat [3]; [12]): > 75 mg/kg/day
NOAEL (rat [3]; [12]): ≥ 75 mg/kg/day
LEL (rat [4]; [13]): 1 mg/kg/day
NEL (rat [4]; [13]): < 1 mg/kg/day
LOAEL (rat [4]; [14]): > 75 mg/kg/day
NOAEL (rat [4]; [14]): ≥ 75 mg/kg/day
LEL (mouse [5]): 3 mg/kg/day
LOAEL (mouse [5]): > 300 mg/kg/day
NEL (mouse [5]): < 3 mg/kg/day
NOAEL (mouse [5]): ≥ 300 mg/kg/day
LEL (primate): 1 mg/kg/day
LOAEL (primate): > 3 mg/kg/day
NEL (primate): < 1 mg/kg/day
NOAEL (primate): ≥ 3 mg/kg/day
LEL (dog [6]): 40 mg/kg/day
LOAEL (dog [6]): > 40 mg/kg/day
NEL (dog [6]): 7 mg/kg/day
NOAEL (dog [6]): ≥ 40 mg/kg/day
LEL (rat [7]): 1 mg/kg/day
LOAEL (rat [7]): > 75 mg/kg/day
NEL (rat [7]): < 1 mg/kg/day
NOAEL (rat [7]): ≥ 75 mg/kg/day
LEL (rat [8]): 1200 mg/kg/day
LOAEL (rat [8]): > 1200 mg/kg/day
NOAEL (rat [8]): ≥ 1200 mg/kg/day
